Experimental data from ChEMBL document CHEMBL1201862, “PubChem BioAssay data set” (2004).
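Cultured in 96-well plates, cells were exposed to test compound for 48 hours across five concentrations. GI50 = concentration required for 50% inhibition of growth.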 Active and inactive are the calls of the source. No stated cut-off is given here; in the data, active = GI50 up to about 1.1 µM and inactive = higher.

Key:
Experiment in all cases: NCI-60 cell line screen, 48 h
NCI/ADR-RES = system: NCI/ADR-RES
DU-145 = system: DU-145
OVCAR-5 = system: OVCAR-5
SF-295 = system: SF-295
SR = system: SR
M14 = system: M14
A498 = system: A498
OVCAR-8 = system: OVCAR-8
HOP-62 = system: HOP-62
Malme-3M = system: Malme-3M
U-251 = system: U-251
MOLT-4 = system: MOLT-4
HT-29 = system: HT-29
SW-620 = system: SW-620
MDA-MB-435 = system: MDA-MB-435
MDA-MB-231 = system: MDA-MB-231
SK-MEL-2 = system: SK-MEL-2
IGROV-1 = system: IGROV-1
786-0 = system: 786-0
UACC-62 = system: UACC-62
ACHN = system: ACHN
NCI-H522 = system: NCI-H522
SNB-19 = system: SNB-19
SN12C = system: SN12C
HCC 2998 = system: HCC 2998
SF-539 = system: SF-539
K562 = system: K562
HL-60 = system: HL-60
UO-31 = system: UO-31
LOX IMVI = system: LOX IMVI
BT-549 = system: BT-549
SF-268 = system: SF-268
SK-MEL-5 = system: SK-MEL-5
RPMI-8226 = system: RPMI-8226
EKVX = system: EKVX
NCI-H460 = system: NCI-H460
A549 = system: A549
COLO 205 = system: COLO 205
KM12 = system: KM12
UACC-257 = system: UACC-257
MDA-N = system: MDA-N
Hs-578T = system: Hs-578T
HCT-116 = system: HCT-116
TK-10 = system: TK-10
NCI-H226 = system: NCI-H226
NCI-H23 = system: NCI-H23
CCRF-CEM = system: CCRF-CEM
CAKI-1 = system: CAKI-1
HOP-92 = system: HOP-92
HCT-15 = system: HCT-15
T47D = system: T47D
SK-MEL-28 = system: SK-MEL-28
RXF 393 = system: RXF 393
PC-3 = system: PC-3
OVCAR-3 = system: OVCAR-3
MCF7 = system: MCF7
SK-OV-3 = system: SK-OV-3
SNB-75 = system: SNB-75
OVCAR-4 = system: OVCAR-4

Measured: GI50

O=C1Nc2ccccc2/C1=C\c1c(Cl)[nH]c2ccccc12
active: NCI/ADR-RES 0.355 µM | SF-295 0.287 µM | SR 0.292 µM | M14 0.873 µM | HOP-62 0.787 µM | Malme-3M 0.631 µM | U-251 0.518 µM | MOLT-4 0.522 µM | HT-29 0.222 µM | SW-620 0.516 µM | MDA-MB-435 0.208 µM | SK-MEL-2 1.11 µM | IGROV-1 0.139 µM | 786-0 0.935 µM | UACC-62 1.05 µM | NCI-H522 0.736 µM | SNB-19 0.764 µM | HCC 2998 0.416 µM | SF-539 0.374 µM | K562 0.364 µM | HL-60 0.251 µM | LOX IMVI 1.07 µM | BT-549 0.832 µM | SF-268 1.12 µM | SK-MEL-5 0.414 µM | RPMI-8226 0.589 µM | EKVX 1.06 µM | NCI-H460 0.597 µM | COLO 205 0.288 µM | KM12 0.397 µM | MDA-N 0.24 µM | Hs-578T 0.409 µM | HCT-116 0.745 µM | CCRF-CEM 0.358 µM | CAKI-1 0.537 µM | HOP-92 0.48 µM | SK-MEL-28 0.299 µM | RXF 393 0.869 µM | PC-3 0.649 µM | OVCAR-3 0.592 µM | MCF7 0.366 µM | SK-OV-3 0.32 µM
0.608 µM: HCT-15
inactive: DU-145 3.35 µM | OVCAR-5 1.44 µM | A498 1.15 µM | OVCAR-8 2.42 µM | MDA-MB-231 1.45 µM | ACHN 1.3 µM | SN12C 2.85 µM | UO-31 1.66 µM | A549 1.23 µM | UACC-257 1.59 µM | TK-10 1.35 µM | NCI-H226 3.65 µM | NCI-H23 2.45 µM | T47D 24 µM

OC(c1cc(C(F)(F)F)nc2c(Cl)cc(Cl)cc12)C1CCCCN1 (stereo unspecified)
13 µM: HCT-15
inactive: NCI/ADR-RES 10.5 µM | DU-145 7.01 µM | OVCAR-5 > 35 µM | SF-295 12.2 µM | SR 1.66 µM | M14 > 25.1 µM | A498 > 36.1 µM | OVCAR-8 13.2 µM | HOP-62 3.77 µM | U-251 25.4 µM | MOLT-4 6.38 µM | SW-620 5.89 µM | MDA-MB-435 5.61 µM | MDA-MB-231 > 22.1 µM | SK-MEL-2 > 23.3 µM | IGROV-1 6.4 µM | 786-0 13.3 µM | UACC-62 > 32.6 µM | ACHN > 24.4 µM | NCI-H522 7.53 µM | SNB-19 > 36.5 µM | HCC 2998 > 100 µM | SF-539 14 µM | K562 5.22 µM | HL-60 5.82 µM | LOX IMVI 2.93 µM | BT-549 14.5 µM | SF-268 16.8 µM | SK-MEL-5 8.65 µM | RPMI-8226 1.95 µM | EKVX > 100 µM | NCI-H460 6.82 µM | A549 20.5 µM | COLO 205 3.22 µM | KM12 6.3 µM | MDA-N 77.1 µM | Hs-578T > 22.4 µM | HCT-116 13.6 µM | NCI-H226 16.8 µM | NCI-H23 8.55 µM | CCRF-CEM 1.27 µM | CAKI-1 8.97 µM | SNB-75 11.8 µM | HOP-92 7.26 µM | T47D 5.65 µM | SK-MEL-28 15.3 µM | RXF 393 4.8 µM | OVCAR-4 5.01 µM | PC-3 > 22.5 µM | OVCAR-3 3.53 µM | MCF7 12.5 µM | SK-OV-3 12.3 µM
active: UO-31 0.906 µM
